Among the data in ChEMBL document CHEMBL1144455, “A small molecule-kinase interaction map for clinical kinase inhibitors” (Nat Biotechnol, 2005) are Kd values, retold here.

Test [1] concerns the target Tyrosine-protein kinase Yes (Homo sapiens, UniProt P07947).
For test [2], the target named is Tyrosine-protein kinase BTK (Homo sapiens, UniProt Q06187).
For the next test, the target named is Activated CDC42 kinase 1 (Homo sapiens, UniProt Q07912).
The target in test [3] is Dual specificity protein kinase CLK3 (Homo sapiens, UniProt P49761).
Dual specificity protein kinase CLK3, sequence (P49761 whole entry): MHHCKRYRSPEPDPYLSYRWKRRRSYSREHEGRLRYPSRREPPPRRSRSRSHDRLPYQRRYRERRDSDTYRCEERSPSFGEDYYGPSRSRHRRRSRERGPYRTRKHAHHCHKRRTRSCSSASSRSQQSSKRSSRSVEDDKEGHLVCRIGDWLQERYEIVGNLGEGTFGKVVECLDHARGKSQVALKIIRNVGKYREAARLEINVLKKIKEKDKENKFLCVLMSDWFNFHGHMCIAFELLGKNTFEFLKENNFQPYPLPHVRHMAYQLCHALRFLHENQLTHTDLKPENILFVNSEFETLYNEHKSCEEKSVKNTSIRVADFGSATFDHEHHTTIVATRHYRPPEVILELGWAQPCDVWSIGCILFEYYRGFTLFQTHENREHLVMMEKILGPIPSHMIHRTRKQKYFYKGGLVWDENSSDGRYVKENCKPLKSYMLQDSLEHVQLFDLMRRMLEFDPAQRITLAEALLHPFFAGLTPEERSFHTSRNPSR
Test [4] has as its target Tyrosine-protein kinase JAK2 (Homo sapiens, UniProt O60674).
The target in test [5] is T1, Membrane-associated tyrosine- and threonine-specific cdc2-inhibitory kinase (Homo sapiens, UniProt Q99640).
T1 sequence (Q99640 whole entry): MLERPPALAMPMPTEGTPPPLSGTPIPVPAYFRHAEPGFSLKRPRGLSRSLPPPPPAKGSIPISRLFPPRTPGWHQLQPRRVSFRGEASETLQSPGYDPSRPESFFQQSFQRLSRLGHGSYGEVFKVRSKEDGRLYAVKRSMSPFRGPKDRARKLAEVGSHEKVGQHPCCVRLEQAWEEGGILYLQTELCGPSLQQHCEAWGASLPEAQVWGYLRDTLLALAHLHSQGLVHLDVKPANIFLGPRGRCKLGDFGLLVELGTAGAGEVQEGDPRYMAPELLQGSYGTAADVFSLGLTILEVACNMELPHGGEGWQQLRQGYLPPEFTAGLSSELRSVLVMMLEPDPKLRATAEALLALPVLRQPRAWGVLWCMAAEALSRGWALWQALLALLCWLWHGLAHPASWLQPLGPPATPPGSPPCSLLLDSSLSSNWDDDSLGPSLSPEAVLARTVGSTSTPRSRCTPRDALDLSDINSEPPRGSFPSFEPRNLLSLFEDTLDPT

The target in test [6] is T2, Serine/threonine-protein kinase 36 (Homo sapiens, UniProt Q9NRP7).
T2 sequence (Q9NRP7 whole entry): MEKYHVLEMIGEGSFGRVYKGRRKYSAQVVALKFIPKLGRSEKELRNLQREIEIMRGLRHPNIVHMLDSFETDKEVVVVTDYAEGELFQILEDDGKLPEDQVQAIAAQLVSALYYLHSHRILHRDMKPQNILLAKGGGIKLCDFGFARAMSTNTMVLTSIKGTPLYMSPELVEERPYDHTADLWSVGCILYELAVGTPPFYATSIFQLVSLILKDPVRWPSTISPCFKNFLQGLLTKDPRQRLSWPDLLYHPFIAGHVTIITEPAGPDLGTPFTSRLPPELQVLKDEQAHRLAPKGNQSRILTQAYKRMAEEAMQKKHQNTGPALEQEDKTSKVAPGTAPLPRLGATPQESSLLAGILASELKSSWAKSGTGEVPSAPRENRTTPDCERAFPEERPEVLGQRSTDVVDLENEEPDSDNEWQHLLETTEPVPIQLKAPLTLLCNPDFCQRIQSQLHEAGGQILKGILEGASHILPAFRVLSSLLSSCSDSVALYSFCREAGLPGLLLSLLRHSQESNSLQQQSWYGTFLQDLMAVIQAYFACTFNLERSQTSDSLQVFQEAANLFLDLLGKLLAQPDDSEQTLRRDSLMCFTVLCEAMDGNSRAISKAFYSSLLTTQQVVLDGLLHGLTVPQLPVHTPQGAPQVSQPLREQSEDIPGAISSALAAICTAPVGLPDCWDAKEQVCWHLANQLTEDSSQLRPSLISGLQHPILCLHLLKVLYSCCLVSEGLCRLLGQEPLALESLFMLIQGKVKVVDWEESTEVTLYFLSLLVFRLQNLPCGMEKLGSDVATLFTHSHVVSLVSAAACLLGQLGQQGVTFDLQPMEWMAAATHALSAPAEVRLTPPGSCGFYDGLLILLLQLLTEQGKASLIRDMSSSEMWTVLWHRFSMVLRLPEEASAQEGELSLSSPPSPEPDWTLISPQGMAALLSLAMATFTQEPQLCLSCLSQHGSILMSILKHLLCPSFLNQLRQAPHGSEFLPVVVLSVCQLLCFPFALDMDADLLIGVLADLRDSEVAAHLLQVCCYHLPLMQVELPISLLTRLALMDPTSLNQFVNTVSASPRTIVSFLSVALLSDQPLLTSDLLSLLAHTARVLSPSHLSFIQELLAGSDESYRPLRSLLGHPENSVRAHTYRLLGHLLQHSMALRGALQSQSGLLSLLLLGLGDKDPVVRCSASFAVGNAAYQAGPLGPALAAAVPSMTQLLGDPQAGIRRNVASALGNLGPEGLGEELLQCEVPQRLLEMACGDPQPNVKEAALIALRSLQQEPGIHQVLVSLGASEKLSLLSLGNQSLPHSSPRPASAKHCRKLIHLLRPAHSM

Test [7] deals with Tyrosine-protein kinase FRK (Homo sapiens, UniProt P42685).
Tyrosine-protein kinase FRK, sequence (P42685 whole entry): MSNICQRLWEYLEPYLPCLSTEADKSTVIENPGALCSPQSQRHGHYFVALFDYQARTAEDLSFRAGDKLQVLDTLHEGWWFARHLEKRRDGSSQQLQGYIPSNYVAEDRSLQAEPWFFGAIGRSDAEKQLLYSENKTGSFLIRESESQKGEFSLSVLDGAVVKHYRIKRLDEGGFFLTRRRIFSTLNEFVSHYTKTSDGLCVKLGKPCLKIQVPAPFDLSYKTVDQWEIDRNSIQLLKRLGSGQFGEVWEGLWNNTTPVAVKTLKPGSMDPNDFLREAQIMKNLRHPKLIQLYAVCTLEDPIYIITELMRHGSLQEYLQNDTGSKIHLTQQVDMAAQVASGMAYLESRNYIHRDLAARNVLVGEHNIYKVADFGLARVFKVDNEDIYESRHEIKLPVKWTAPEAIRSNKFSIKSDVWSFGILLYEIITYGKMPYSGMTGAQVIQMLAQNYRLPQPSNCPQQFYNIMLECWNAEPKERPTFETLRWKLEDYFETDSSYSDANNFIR
The target of test [8] is T3, Serine/threonine-protein kinase 17A (Homo sapiens, UniProt Q9UEE5).
T3 sequence (Q9UEE5 whole entry): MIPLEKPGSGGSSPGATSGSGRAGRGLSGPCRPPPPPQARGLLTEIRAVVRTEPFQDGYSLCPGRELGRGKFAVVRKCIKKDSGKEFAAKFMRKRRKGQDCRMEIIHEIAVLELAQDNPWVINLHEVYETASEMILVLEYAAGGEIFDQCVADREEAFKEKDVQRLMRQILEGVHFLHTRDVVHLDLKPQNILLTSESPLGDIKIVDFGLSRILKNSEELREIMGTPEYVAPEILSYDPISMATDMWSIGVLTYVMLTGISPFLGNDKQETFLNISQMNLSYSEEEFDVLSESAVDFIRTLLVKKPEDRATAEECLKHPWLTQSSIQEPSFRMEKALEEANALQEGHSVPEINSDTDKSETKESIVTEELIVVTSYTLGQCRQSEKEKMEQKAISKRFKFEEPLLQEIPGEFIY

Test [9] deals with MAP kinase-interacting serine/threonine-protein kinase 2 (Homo sapiens, UniProt Q9HBH9).
MAP kinase-interacting serine/threonine-protein kinase 2, sequence (Q9HBH9 whole entry): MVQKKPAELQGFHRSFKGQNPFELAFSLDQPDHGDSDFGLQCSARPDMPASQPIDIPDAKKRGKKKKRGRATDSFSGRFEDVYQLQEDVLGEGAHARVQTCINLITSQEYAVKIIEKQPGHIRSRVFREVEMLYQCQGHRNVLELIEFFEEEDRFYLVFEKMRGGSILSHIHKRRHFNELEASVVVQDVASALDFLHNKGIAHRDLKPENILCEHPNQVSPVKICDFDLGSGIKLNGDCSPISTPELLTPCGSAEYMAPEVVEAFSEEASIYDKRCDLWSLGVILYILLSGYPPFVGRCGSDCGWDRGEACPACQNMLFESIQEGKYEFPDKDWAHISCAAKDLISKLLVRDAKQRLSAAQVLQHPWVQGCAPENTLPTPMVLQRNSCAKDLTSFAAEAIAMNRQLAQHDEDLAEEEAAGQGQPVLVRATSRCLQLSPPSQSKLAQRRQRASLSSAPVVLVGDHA
Test [10] concerns the target Ribosomal protein S6 kinase alpha-5 (Homo sapiens, UniProt O75582).

Tyrosine-protein kinase BTK, sequence (Q06187 whole entry): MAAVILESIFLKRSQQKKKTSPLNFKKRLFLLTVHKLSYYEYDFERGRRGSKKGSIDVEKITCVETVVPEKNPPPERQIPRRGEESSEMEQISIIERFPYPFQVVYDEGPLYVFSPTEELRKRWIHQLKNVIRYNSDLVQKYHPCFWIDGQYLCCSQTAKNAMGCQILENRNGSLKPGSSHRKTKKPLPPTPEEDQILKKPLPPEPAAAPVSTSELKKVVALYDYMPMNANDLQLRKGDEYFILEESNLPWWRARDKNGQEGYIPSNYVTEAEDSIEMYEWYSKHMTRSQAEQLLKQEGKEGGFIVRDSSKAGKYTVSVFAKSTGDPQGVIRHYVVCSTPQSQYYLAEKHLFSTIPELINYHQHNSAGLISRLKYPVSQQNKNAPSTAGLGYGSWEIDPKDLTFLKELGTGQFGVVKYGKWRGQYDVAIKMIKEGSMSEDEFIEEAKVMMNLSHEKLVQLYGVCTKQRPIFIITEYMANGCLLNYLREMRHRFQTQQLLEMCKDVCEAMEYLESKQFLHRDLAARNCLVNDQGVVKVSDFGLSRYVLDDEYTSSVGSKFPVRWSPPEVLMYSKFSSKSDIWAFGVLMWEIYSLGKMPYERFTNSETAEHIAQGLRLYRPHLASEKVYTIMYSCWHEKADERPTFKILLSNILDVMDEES
Activated CDC42 kinase 1, sequence (Q07912 whole entry): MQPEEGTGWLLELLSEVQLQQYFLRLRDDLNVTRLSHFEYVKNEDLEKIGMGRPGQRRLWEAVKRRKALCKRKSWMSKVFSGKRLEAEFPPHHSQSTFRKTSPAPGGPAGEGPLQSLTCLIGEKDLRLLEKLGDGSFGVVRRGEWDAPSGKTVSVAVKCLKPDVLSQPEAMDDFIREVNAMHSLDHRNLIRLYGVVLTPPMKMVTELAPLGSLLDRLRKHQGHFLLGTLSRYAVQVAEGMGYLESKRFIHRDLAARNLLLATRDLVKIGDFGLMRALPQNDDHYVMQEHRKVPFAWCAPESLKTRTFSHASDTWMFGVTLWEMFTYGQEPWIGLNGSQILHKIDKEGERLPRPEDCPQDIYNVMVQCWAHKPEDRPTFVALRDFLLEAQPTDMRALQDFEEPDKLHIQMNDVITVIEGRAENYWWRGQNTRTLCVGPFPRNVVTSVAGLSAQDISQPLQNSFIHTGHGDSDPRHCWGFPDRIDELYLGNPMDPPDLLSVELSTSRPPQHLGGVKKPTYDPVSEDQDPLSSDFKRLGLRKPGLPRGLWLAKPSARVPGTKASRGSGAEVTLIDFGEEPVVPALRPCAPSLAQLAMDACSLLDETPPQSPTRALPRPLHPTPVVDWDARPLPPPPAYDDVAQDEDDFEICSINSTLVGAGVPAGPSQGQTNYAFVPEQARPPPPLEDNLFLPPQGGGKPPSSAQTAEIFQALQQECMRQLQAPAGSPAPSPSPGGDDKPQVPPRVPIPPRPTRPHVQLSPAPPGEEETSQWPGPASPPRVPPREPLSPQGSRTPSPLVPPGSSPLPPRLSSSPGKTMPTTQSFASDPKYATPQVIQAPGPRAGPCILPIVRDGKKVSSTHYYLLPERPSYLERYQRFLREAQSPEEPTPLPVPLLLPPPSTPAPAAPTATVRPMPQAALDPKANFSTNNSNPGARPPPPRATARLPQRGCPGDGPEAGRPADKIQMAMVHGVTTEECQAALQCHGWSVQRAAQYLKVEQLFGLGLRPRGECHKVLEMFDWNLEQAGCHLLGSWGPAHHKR
Tyrosine-protein kinase JAK2, sequence (O60674 whole entry): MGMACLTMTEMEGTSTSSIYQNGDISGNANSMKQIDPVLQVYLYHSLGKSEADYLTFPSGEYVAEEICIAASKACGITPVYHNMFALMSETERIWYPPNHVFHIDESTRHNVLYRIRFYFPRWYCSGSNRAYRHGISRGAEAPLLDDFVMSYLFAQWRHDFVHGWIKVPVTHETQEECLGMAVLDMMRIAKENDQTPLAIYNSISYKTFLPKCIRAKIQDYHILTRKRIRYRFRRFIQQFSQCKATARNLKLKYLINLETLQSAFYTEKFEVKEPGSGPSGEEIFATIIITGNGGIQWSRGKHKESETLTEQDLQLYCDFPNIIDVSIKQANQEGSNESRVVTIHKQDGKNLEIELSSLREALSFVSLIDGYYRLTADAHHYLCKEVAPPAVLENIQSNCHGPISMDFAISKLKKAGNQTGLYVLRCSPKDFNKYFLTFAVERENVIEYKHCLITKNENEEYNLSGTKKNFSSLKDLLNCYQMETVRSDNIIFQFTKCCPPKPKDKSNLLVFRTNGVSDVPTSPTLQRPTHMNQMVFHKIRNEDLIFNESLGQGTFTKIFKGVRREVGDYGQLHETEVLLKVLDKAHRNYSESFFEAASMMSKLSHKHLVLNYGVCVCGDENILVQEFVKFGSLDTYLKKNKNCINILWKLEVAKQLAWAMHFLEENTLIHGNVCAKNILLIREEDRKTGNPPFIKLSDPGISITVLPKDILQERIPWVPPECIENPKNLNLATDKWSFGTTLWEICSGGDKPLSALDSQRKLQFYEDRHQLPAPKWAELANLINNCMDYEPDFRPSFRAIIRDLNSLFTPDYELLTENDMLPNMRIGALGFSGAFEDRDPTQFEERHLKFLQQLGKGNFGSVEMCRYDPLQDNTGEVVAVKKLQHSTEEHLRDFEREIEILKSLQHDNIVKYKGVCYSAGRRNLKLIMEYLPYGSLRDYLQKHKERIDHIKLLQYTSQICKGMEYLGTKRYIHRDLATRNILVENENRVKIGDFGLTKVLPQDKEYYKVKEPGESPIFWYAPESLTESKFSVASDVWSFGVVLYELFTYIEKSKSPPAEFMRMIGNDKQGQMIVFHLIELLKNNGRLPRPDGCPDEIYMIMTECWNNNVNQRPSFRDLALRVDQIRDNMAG
Tyrosine-protein kinase Yes, sequence (P07947 whole entry): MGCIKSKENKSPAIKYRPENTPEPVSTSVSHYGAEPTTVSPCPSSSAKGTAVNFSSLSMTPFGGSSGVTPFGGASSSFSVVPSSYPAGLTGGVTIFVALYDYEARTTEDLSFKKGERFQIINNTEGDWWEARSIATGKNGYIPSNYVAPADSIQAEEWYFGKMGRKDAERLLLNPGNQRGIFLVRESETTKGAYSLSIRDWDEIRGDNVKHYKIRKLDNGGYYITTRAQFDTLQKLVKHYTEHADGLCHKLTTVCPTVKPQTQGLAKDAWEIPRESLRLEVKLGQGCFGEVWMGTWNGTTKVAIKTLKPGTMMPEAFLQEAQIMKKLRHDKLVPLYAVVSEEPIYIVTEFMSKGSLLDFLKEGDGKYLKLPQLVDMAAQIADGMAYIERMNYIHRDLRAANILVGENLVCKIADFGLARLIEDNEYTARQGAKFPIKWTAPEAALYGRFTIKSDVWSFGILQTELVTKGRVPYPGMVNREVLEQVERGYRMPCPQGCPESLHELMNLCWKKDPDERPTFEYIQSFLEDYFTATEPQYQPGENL

In the case of `CCOc1cc2ncc(C#N)c(Nc3ccc(F)c(Cl)c3)c2cc1NC(=O)/C=C/CN(C)C` [PELITINIB], the dissociation constant Kd in test [1] turned out to be 0.84 µM; in test [2], 1.5 µM; at Activated CDC42 kinase 1, 0.89 µM; in [3], 2.1 µM; in test [4] it was 2 µM; in [5], 0.93 µM.

For the molecule `Oc1ccc(-c2nc(-c3ccc(F)cc3)c(-c3ccncc3)[nH]2)cc1` [SB-202190], the equilibrium dissociation constant (Kd) came to 3.8 µM in test [6] and 6 µM in test [7].

Turning to `Oc1c2ccccc2c2c3c(cccc13)N=N2` [SP-600125], the Kd in [8] amounted to 2.1 µM; in [9], 1 µM; in test [10], 1.7 µM.
